The nature of series [1]: Rodent pharmacokinetic study. The format is in vivo, rat. The settings on record: male Wistar rats. The procedure: Rodent Pharmacokinetic Study
Male Wistar rats (260±50 grams) were used as experimental animals. Animals were housed individually in polypropylene cage. Two days prior to study, male Wistar rats were anesthetized with isoflurane for surgical placement of jugular vein catheter. Rats were randomly divided for oral (3 mg/kg) and intravenous (1 mg/kg) dosing (n=3/group) and fasted overnight before oral dosing (p.o.). However, rats allocated to intravenous (i.v.) dosing food and water was provided ad libitum.
At pre-determined point, blood was collected through jugular vein and replenished with an equivalent volume of normal saline. Collected blood was transferred into a labeled eppendorf tube containing 10 μL of heparin as an anticoagulant. Typically blood samples were collected at following time points: 0.08, 0.25, 0.5, 1, 2, 4, 6, 8, and 24 hours post dose. Blood was centrifuged at 4000 rpm for 10 minutes. Plasma was separated and stored frozen at −80° C. until analysis. The concentrations of the test compounds were quantified in plasma by qualified LC-MS/MS method using suitable extraction technique. The test compounds were quantified in the calibration range around 1-1000 ng/mL in plasma. Study samples were analyzed using calibration samples in the batch and quality control samples spread across the batch.
Pharmacokinetic parameters Cmax, Tmax, AUCt, T1/2, clearance, Vz and bioavailability were calculated by non-compartmental model using standard non-compartmental model by using Phoenix WinNonlin 6.0.2 or 6.0.3 version Software package.

The subject of series [2] is soluble amyloid precursor protein α (sAPPα). The series is described as follows: Cortical sAPPα levels in mice brain (ELISA). The format is in vivo. The settings on record: male C57BL/6J mice, 10 mg/kg, i.p., sixty minutes post treatment; FIG. 4. The procedure: Modulation of Soluble Amyloid Precursor Protein α (sAPPα) Levels in Cortex
Estimation of Cortical sAPPα Levels in Mice Brain
Male C57BL/6J mice ([…]) were randomly divided (n=8 group) into five groups. Control group of mice were intraperitoneally (i.p.) administered with vehicle (99.75% of 0.25% HEC HHX+0.25% tween 80) and the treatment group of mice received a single intraperitoneal injection of example 18 (dose volume of 10 mL/kg). Mice were sacrificed by cervical dislocation at 60 minutes after administration of test compound. Brains were quickly isolated and the cortex was dissected at −20° C. The cortex was immediately kept on a dry ice and weighed before being stored at −80° C. until quantification of sAPPα using Enzyme-linked immunosorbent assay (ELISA).
• 1. […]
To investigate the role of an acute treatment of test compound on sAPPα levels, the expression of this protein was measured in homogenates obtained from the cortex of treated and untreated rats by employing ELISA assay. […]
Statistical analyses were performed using the Graph Pad Prism (Version 4). Results are expressed as Mean±SEM levels of sAPPα expressed as percentage of control values (rats treated with vehicle). Statistical significance after treatment was assessed using One-Way ANOVA followed by Dunnett's post test and the significance level was set below p value less than 0.05.
Background: In an ELISA, binding on a coated surface is turned into a signal by an enzyme label.

The test system of another series is Male Wistar rats. In words: Object recognition task model (time induced memory deficit). The format is in vivo, rat. The method, then:
Object Recognition Task Model
The cognition enhancing properties of compounds of this invention were estimated by using this model.
Male Wistar rats (8-10 weeks old) were used as experimental animals. Four animals were housed in each cage. Animals were kept on 20% food deprivation from a day prior to experimentation. Water was provided ad libitum throughout the experiment. Animals were maintained on a 12 hours light/dark cycle in temperature and humidity controlled room. The experiment was carried out in an open field made up of acrylic. Rats were habituated to individual arenas (open field) for 1 hour in the absence of any objects on day 1.
One group of 12 rats received vehicle and another set of animals received test compounds or test compounds and Donepezil, before the familiar (T1) and choice (T2) trials. During the familiarization phase, (T1), the rats were placed individually in the arena for 3 minutes, in which two identical objects (a1 and a2) were positioned 10 cm from the wall. 24 hours after T1, trial for long-term memory test was performed. The same rats were placed in the same arena as they were placed in T1 trial. During the choice phase (T2) rats were allowed to explore the arena for 3 minutes in presence of a copy of familiar object (a3) and one novel object (b). During the T1 and T2 trial, explorations of each object (defined as sniffing, licking, chewing or having moving vibrissae whilst directing the nose towards the object at a distance of less than 1 cm) were recorded using stopwatch.
T1 is the total time spent exploring the familiar objects (a1+a2).
T2 is the total time spent exploring the familiar object and novel object (a3+b). Discriminative index=Time spent with novel object/(time spent with novel and familiar object).
The object recognition test was performed as described in Behavioural Brain Research, 1988, 31, 47-59.

[3] abbreviates: rat, plasma, iv, 1 mg/kg i.v. (bolus).
Where [4] appears, read: rat, plasma, 3 mg/kg oral (gavage).
The mark [5] stands for this setting: 1 mg/kg, p.o., choice trial 24 hours after T1.

One compound from patent publication US10308620B2, “Muscarinic M1 receptor positive allosteric modulators” (SUVEN LIFE SCIENCES LIMITED, priority 2015, dated 2019) can be followed below.

A word on the clearance: it is the volume of plasma or blood freed of the substance per unit of time. As usually defined, the half-life is how long it takes for the measured level to halve. The Cmax is the peak of the concentration-time curve. By Tmax is commonly meant the time at which the peak concentration occurs. One may read the bioavailability as dose-corrected exposure relative to a reference, in per cent.

In series [1] (1 mg/kg i.v. (bolus)), `O=C(N[C@H]1CCCC[C@@H]1O)C1=CN(Cc2cccc(F)c2F)c2ccccc2O1` [Example 18, N-(cis-1S, 2S-2-Hydroxycyclohexyl)-4-(2,3-difluorobenzyl)-4H-benzo[1,4]oxazine-2-carboxamide] came in with an AUC0-t of 929 ± 27 ng·h/mL. The AUC0-t in series [1] (3 mg/kg oral (gavage)) stood at 2070 ± 839 ng·h/mL. Moreover, in series [1] (setting [3]), the clearance turned out to be 17 ± 1 mL/min/kg and the half-life was 2.1 ± 0.1 h. The Vd in series [1] (rat, plasma, iv, 1 mg/kg i.v. (bolus), read-out: Vz) was 3.2 ± 0.1 L/kg. Also, in series [1] (setting [4]), the Cmax was found to be 477 ± 96 ng/mL, the Tmax amounted to 0.42 ± 0.14 h and the half-life is 3.9 ± 0.8 h. In series [1] (rat, plasma, 3 mg/kg oral vs 1 mg/kg i.v.), this compound came in with a bioavailability of 74 ± 30%. The “mean increase in cortical sAPPα levels” value in series [2] amounted to 38%. The Inference entry with Male Wistar rats (1 mg/kg, p.o.) is “Active”. Besides, in the series on Male Wistar rats (setting [5]), the “Exploration time mean ± S.E.M, Familiar object” value was 8.74 ± 1.49 s and the “Exploration time mean ± S.E.M, Novel object” value amounted to 16.47 ± 1.82 s. The Procognitive effects entry in the series with Male Wistar rats (in combination with donepezil, FIGS. 1 and 2) was “better than the either treatment”.
